In patent US11987570B1, “10-(2-hydroxyethyl)-9-(2-hydroxypyridin-3-yl)-3,4,6,7,9,10-hexahydroacridine-1,8(2H,5H)-dione as an antimicrobial compound” (KING FAISAL UNIVERSITY, priority 2023, dated 2024):

Legend:
Assay type in all cases: cell-based
Conditions in all cases: after 10, 20, 40 and 60 minutes at all dilutions 1:100, 1:200, 1:400, 1:800
Staphylococcus aureus = assay: Antimicrobial screening by agar dilution, Staphylococcus aureus
Procedure: (§1) The antibacterial properties of the synthesized compound (10-(2-hydroxyethyl)-9-(2-hydroxypyridin-3-yl)-3,4,6,7,9,10-hexahydroacridine-1,8(2H,5H)-dione) were studied by the method of agar dilution. Test solutions of each compound was prepared in concentration of 1% using dimethylformamide as a solvent then they are diluted in physiological solution to obtain the final experimental dilutions 1:100, 1:200, 1:400, 1:800. The effect of these substances are compared with furacillin in a controllable study. The testing microbes used were gram positive bacteria Staphylococcus aureus, gram negative bacteria Pseudomonas aeruginosa and Escherichia coli and Candida albicans fungus. The experiments used for this survey were meat-pentonlu agar (EPA) for cultivation of bacteria and Saburo environment for the fungus. Each experiment used 1 mL of test solution on each plate […]. Two drops of emulsified with microbes feel were added. All experimental samples were taken from the agar after 10, 20, 40, 60 minutes in the environment on the basis of Patrk planted. The bacteria were cultivated at a temperature of 37° C. for 1 day and the mushroom was kept in a thermostat for 2 hours at a temperature of 28° C. Then results were checked.

Pseudomonas aeruginosa = assay: Antimicrobial screening by agar dilution, Pseudomonas aeruginosa
Procedure: as §1

Candida albicans = assay: Antimicrobial screening by agar dilution, Candida albicans
Procedure: as §1

Escherichia coli = assay: Antimicrobial screening by agar dilution, Escherichia coli
Procedure: as §1

Measured: inhibition activity

O=C1CCCC2=C1C(c1cccnc1O)C1=C(CCCC1=O)N2CCO [10-(2-hydroxyethyl)-9-(2-hydroxypyridin-3-yl)-3,4,6,7,9,10-hexahydroacridine-1,8(2H,5H)-dione]
highest inhibition activity: Staphylococcus aureus | Pseudomonas aeruginosa | Candida albicans | Escherichia coli
